Assay results taken from patent US10344034B2, “Pyrazolopyrimidone or Pyrrolotriazone derivatives, method of preparing same, and pharmaceutical applications thereof” (Shanghai Hengrui Pharmaceutical Co., Ltd., priority 2013, dated 2019).

Legend:
human GnRHr = human GnRHr (Homo sapiens (Human), UniProt P30968); assay: Human GnRHr (GnRH receptor) activity assay, Fluo-4 calcium signal in Human GnRHr/CHO stably transfected cell lines; assay type: cell-based; conditions: Human GnRHr/CHO cells, GnRH polypeptide stimulant
Procedure: Test Example 1. Human GnRHr (GnRH Receptor) Activity Assay of the Present Compounds.
In vitro GnRHr protein activity was tested by the following methods.
This assay was used to determine the inhibition effect of the present compound on the activity of human GnRHr protein expressed by Human GnRHr/CHO stably transfected cell lines.
A mammalian expression vector containing the human GnRHr gene was transferred into CHO cells by adding Lipofectamine® LTX reagent containing Plus™. Antibiotics were added the next day for screening to pick out the monoclonal cell lines.
(§1) The Human GnRHr/CHO stably transfected cell lines were inoculated in 96-well plates with an inoculation density of 25,000 cells/well. The culture medium was removed the next day, and loading buffer containing Fluo-4 dye was added to the plate (100 μL/well) and incubated for 30 minutes at 37° C. The plate was moved to room temperature and equilibrated for 10 minutes. Each compound was diluted with DMSO to seven concentration gradients of 100 μM, 10 μM, 1 μM, 0.1 μM, 0.01 μM, 0.001 μM, 0.0001 μM. Then, 1 μl of each gradient was added to each well and incubated for 10 minutes at room temperature. After automated addition of 50 μL of GnRH polypeptide stimulant solution, the value was immediately detected at 494/516 nM by a microplate reader (flexstation 3). IC50 values of the compounds were calculated by software from different fluorescence signals at various corresponding concentrations.
The inhibitory activity of the present compounds on human GnRHr was determined by the above assay, and IC50 values are shown in Table 1.

rabbit GnRHr = rabbit GnRHr (Oryctolagus cuniculus, UniProt Q5U7L3); assay: Rabbit GnRHr inhibitory activity assay, rabbit GnRHr/CHO stably transfected cell lines; assay type: cell-based; conditions: rabbit GnRHr/CHO cells, GnRH polypeptide stimulant, Fluo-4
Procedure: Test Example 3. Rabbit GnRHr Inhibitory Activity Assay of the Present Compounds
This assay was used to determine the inhibition effect of the present compounds on the activity of rabbit GnRHr protein expressed by rabbit GnRHr/CHO stably transfected cell lines.
A mammalian expression vector containing the rabbit GnRHr gene was transferred into CHO cells by adding Lipofectamine® LTX reagent containing Plus™. Antibiotics were added the next day for screening to pick out the monoclonal cell lines.
as §1, with “rabbit” for “Human”, “494/516n M” for “494/516 nM”
The inhibitory activity of the present compounds on rabbit GnRHr was determined by the above assay, and IC50 values are shown in Table 1.

[1] = Rat pharmacokinetics assay; assay type: in vivo, Sprague-Dawley (SD) rats; conditions: both sexes, Sprague-Dawley, plasma, oral 10 mg/kg; for Vd/F: read-out: Apparent volume of distribution Vz/F; for AUC: read-out: Area under curve AUC; for CL/F: read-out: Clearance rate CL/F; for half-life: read-out: Half-life T1/2 (converted); for Cmax: read-out: Plasma concentration Cmax; for MRT: read-out: Residence time MRT
Procedure: Test Example 4. Rat pharmacokinetics assay of the compounds of Example 2, Example 3, Example 5, Example 9, Example 10, Example 11, and Example 13 of the present invention.
Sprague-Dawley (SD) rats were used as test animals. The plasma concentrations at various times were determined by LC/MS/MS after intragastric administration of compounds of Example 2, Example 3, Example 5, Example 9, Example 10, Example 11, and Example 13, and intravenous administration of the compound of Example 11 to the rats. The pharmacokinetic behavior of the present compounds in rats was studied, and the pharmacokinetic features were evaluated.
Thirty-two (32) healthy adult SD rats (half female and half male) were evenly designated into 8 groups (4 for each group). The animals were purchased from Shanghai Super B&K Laboratory Animal Corp. Ltd (laboratory animal production Certificate No. SCXK (HU)2008-0016).
An appropriate amount of sample was weighed, and added with 0.5% CMC-Na to form a 1 mg/ml suspension upon ultrasonic treatment.
Appropriate amounts of drugs were weighed, and dissolved with 0.5 ml DMSO and 0.5 ml of Tween 80. Saline solution was added to the final volume.
Thirty-two (32) SD rats (half female and half male) were evenly designated into 8 groups (4 for each group), and administered by oral gavage or intravenous injection (i.v.) (oral gavage at a dosage of 10 mg/kg or 30 mg/kg, and i.v. at a dosage of 5.0 mg/kg), respectively, at a volume of 10 ml/kg after fasting overnight.
0.1 ml of blood was sampled before, and 0.5, 1, 2, 4, 6, 8, 11, and 24 hours after administration, collected in a heparinized test tube, and centrifuged at 3500 rpm for 10 minutes to separate the plasma, which was stored at −20° C. The animals were allowed access to feed 2 hours after administration.
The content of the test compound in the plasma of rats after administration of the compound by oral gavage was determined by LC/MS/MS.

human GnRHr, sequence (P30968 whole entry): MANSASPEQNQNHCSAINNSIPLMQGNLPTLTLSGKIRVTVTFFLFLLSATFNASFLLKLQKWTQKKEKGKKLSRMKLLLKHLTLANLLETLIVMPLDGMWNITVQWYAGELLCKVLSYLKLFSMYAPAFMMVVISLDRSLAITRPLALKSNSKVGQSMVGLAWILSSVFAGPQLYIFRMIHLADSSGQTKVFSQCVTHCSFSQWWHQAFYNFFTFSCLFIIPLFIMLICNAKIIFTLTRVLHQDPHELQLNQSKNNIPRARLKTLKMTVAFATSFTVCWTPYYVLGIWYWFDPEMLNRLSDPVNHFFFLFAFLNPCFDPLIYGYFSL
rabbit GnRHr, sequence (Q5U7L3 1-328): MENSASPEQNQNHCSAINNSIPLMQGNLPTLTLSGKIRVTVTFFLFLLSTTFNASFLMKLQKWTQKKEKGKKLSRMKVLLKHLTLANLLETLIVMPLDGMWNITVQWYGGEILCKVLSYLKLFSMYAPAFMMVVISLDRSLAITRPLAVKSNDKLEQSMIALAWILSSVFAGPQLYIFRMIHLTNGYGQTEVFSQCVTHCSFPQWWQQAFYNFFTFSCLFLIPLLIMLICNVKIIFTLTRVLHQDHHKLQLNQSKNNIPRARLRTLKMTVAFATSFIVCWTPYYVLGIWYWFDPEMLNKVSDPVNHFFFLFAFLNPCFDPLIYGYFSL

| IC50 (human GnRHr) | Vd/F [1] | AUC [1] | CL/F [1] | half-life [1] | Cmax [1] | MRT [1] | SMILES | IC50 (rabbit GnRHr) |
| --- | --- | --- | --- | --- | --- | --- | --- | --- |
| 0.43 nM |  |  |  |  |  |  | CONC(=O)Nc1ccc(-c2cn3c(c2CN(C)C)c(=O)n(-c2cccc(OC)c2F)c(=O)n3Cc2c(F)cccc2F)cc1 [Example 15, 1-(4-(1-(2,6-difluorobenzyl)-5-((dimethylamino)methyl)-3-(2-fluoro-3-methoxyphenyl)-2,4-dioxo-1,2,3,4-tetrahydropyrrolo[2,1-f][1,2,4]triazin-6-yl)phenyl)-3-methoxyurea] |  |
| 1.46 nM | 14.4 ± 10.5 L/kg | 1550 ± 650 ng·h/mL | 121 ± 44 mL/min/kg | 1.24 ± 0.54 h | 746 ± 493 ng/mL | 2.02 ± 0.67 h | CONC(=O)Nc1ccc(-n2nc3c(c2CN(C)C)c(=O)n(-c2cccc(OC)c2F)c(=O)n3Cc2c(F)cccc2F)cc1 [Example 2, 1-(4-(7-(2,6-difluorobenzyl)-3-((dimethylamino)methyl)-5-(2-fluoro-3-methoxyphenyl)-4,6-dioxo-4,5,6,7-tetrahydro-2H-pyrazolo[3,4-d]pyrimidin-2-yl)phenyl)-3-methoxyurea] |  |
| 0.11 nM |  |  |  |  |  |  | CNC(=O)Nc1ccc(-c2cn3c(c2CN(C)C)c(=O)n(-c2cccc(OC)c2F)c(=O)n3Cc2c(F)cccc2F)cc1 [Example 14, 1-(4-(1-(2,6-difluorobenzyl)-5-((dimethylamino)methyl)-3-(2-fluoro-3-methoxyphenyl)-2,4-dioxo-1,2,3,4-tetrahydropyrrolo[2,1-f][1,2,4]triazin-6-yl)phenyl)-3-methylurea] |  |
| 0.96 nM |  |  |  |  |  |  | CCNC(=O)Nc1ccc(-n2nc3c(c2CN(C)C)c(=O)n(-c2cccc(OC)c2F)c(=O)n3Cc2c(F)cccc2C(F)(F)F)cc1 [Example 6, 1-(4-(3-((dimethylamino)methyl)-5-(2-fluoro-3-methoxyphenyl)-7-(2-fluoro-6-(trifluoromethyl)benzyl)-4,6-dioxo-4,5,6,7-tetrahydro-2H-pyrazolo[3,4-d]pyrimidin-2-yl)phenyl)-3-ethylurea] |  |
| 2.32 nM |  |  |  |  |  |  | CNC(=O)Nc1ccc(-c2cn3c(c2CN(C)C)c(=O)n(-c2ccc(OC)nn2)c(=O)n3Cc2c(F)cccc2F)cc1 [Example 16, 1-(4-(1-(2,6-difluorobenzyl)-5-((dimethylamino)methyl)-3-(6-methoxypyridazin-3-yl)-2,4-dioxo-1,2,3,4-tetrahydropyrrolo[2,1-f][1,2,4]triazin-6-yl)phenyl)-3-methylurea] |  |
| 0.66 nM | 30.3 ± 14.4 L/kg | 1240 ± 593 ng·h/mL | 168 ± 95 mL/min/kg | 2.29 ± 0.84 h | 598 ± 431 ng/mL | 2.96 ± 0.17 h | CCNC(=O)Nc1ccc(-n2nc3c(c2CN(C)C)c(=O)n(-c2ccc(OC)nn2)c(=O)n3Cc2c(F)cccc2F)cc1 [Example 10, 1-(4-(7-(2,6-difluorobenzyl)-3-((dimethylamino)methyl)-5-(6-methoxypyridazin-3-yl)-4,6-dioxo-4,5,6,7-tetrahydro-2H-pyrazolo[3,4-d]pyrimidin-2-yl)phenyl)-3-ethylurea] |  |
| 2.24 nM |  |  |  |  |  |  | CNC(=O)Nc1ccc(-n2nc3c(c2CN(C)C)c(=O)n(-c2ccc(OC)nn2)c(=O)n3Cc2c(F)cccc2C(F)(F)F)cc1 [Example 12, 1-(4-(3-((dimethylamino)methyl)-7-(2-fluoro-6-(trifluoromethyl)benzyl)-5-(6-methoxypyridazin-3-yl)-4,6-dioxo-4,5,6,7-tetrahydro-2H-pyrazolo[3,4-d]pyrimidin-2-yl)phenyl)-3-methylurea] |  |
| 0.66 nM | 46.8 ± 39.2 L/kg | 1290 ± 1030 ng·h/mL | 247 ± 198 mL/min/kg | 2.32 ± 0.65 h | 690 ± 660 ng/mL | 2.47 ± 0.75 h | CNC(=O)Nc1ccc(-n2nc3c(c2CN(C)C)c(=O)n(-c2cccc(OC)c2F)c(=O)n3Cc2c(F)cccc2F)cc1 [Example 5, 1-(4-(7-(2,6-difluorobenzyl)-3-((dimethylamino)methyl)-5-(2-fluoro-3-methoxyphenyl)-4,6-dioxo-4,5,6,7-tetrahydro-2H-pyrazolo[3,4-d]pyrimidin-2-yl)phenyl)-3-methylurea] |  |
| 0.92 nM | 231 ± 234 L/kg | 389 ± 298 ng·h/mL | 915 ± 1050 mL/min/kg | 3.31 ± 0.57 h | 103 ± 64 ng/mL | 4.48 ± 0.7 h | CCNC(=O)Nc1ccc(-c2cn3c(c2CN(C)C)c(=O)n(-c2cccc(OC)c2F)c(=O)n3Cc2c(F)cccc2F)cc1 [Example 13, 1-(4-(1-(2,6-difluorobenzyl)-5-((dimethylamino)methyl)-3-(2-fluoro-3-methoxyphenyl)-2,4-dioxo-1,2,3,4-tetrahydropyrrolo[2,1-f][1,2,4]triazin-6-yl)phenyl)-3-ethylurea] |  |
| 0.9 nM | 96.2 ± 42.2 L/kg | 1070 ± 472 ng·h/mL | 181 ± 79 mL/min/kg | 6.17 ± 0.79 h | 237 ± 158 ng/mL | 6.42 ± 1.39 h | CCNC(=O)Nc1ccc(-n2nc3c(c2CN(C)C)c(=O)n(-c2cccc(OC)c2F)c(=O)n3Cc2c(F)cccc2F)cc1 [Example 3, 1-(4-(7-(2,6-difluorobenzyl)-3-((dimethylamino)methyl)-5-(2-fluoro-3-methoxyphenyl)-4,6-dioxo-4,5,6,7-tetrahydro-2H-pyrazolo[3,4-d]pyrimidin-2-yl)phenyl)-3-ethylurea] |  |
| 0.49 nM |  |  |  |  |  |  | CONC(=O)Nc1ccc(-n2nc3c(c2CN(C)C)c(=O)n(-c2cccc(OC)c2F)c(=O)n3Cc2c(F)cccc2C(F)(F)F)cc1 [Example 7, 1-(4-(3-((dimethylamino)methyl)-5-(2-fluoro-3-methoxyphenyl)-7-(2-fluoro-6-(trifluoromethyl)benzyl)-4,6-dioxo-4,5,6,7-tetrahydro-2H-pyrazolo[3,4-d]pyrimidin-2-yl)phenyl)-3-methoxyurea] |  |

| SMILES | IC50 (human GnRHr) | Vd/F [1] | AUC [1] | CL/F [1] | half-life [1] | Cmax [1] | MRT [1] | IC50 (rabbit GnRHr) |
| --- | --- | --- | --- | --- | --- | --- | --- | --- |
| CNC(=O)Nc1ccc(-n2nc3c(c2CN(C)C)c(=O)n(-c2ccc(OC)nn2)c(=O)n3Cc2c(F)cccc2F)cc1 [Example 9, 1-(4-(7-(2,6-difluorobenzyl)-3-((dimethylamino)methyl)-5-(6-methoxypyridazin-3-yl)-4,6-dioxo-4,5,6,7-tetrahydro-2H-pyrazolo[3,4-d]pyrimidin-2-yl)phenyl)-3-methylurea] | 0.42 nM | 72 ± 25 L/kg | 628 ± 369 ng·h/mL | 332 ± 159 mL/min/kg | 2.91 ± 1.64 h | 146 ± 59 ng/mL | 4.67 ± 2.22 h | 0.24 nM |
| CNC(=O)Nc1ccc(-n2nc3c(c2CN(C)C)c(=O)n(-c2cccc(OC)c2F)c(=O)n3Cc2c(F)cccc2C(F)(F)F)cc1 [Example 8, 1-(4-(3-((dimethylamino)methyl)-5-(2-fluoro-3-methoxyphenyl)-7-(2-fluoro-6-(trifluoromethyl)benzyl)-4,6-dioxo-4,5,6,7-tetrahydro-2H-pyrazolo[3,4-d]pyrimidin-2-yl)phenyl)-3-methylurea] | 0.6 nM |  |  |  |  |  |  | 0.27 nM |
